Measurements: patent publication US20130231303A1, “5-HALOGENOPYRAZOLE(THIO)CARBOXAMIDES” (Bayer Intellectual Property GmbH, priority 2010, published 2013)

Columns and labels:
[1] = logP by HPLC on reversed-phase column (EEC Directive 79/831 Annex V.A8); assay type: physicochemical; conditions: HPLC, reversed-phase C 18, 40° C., 0.1% aqueous formic acid and acetonitrile gradient
Experimental: In table 1, the logP values were determined in accordance with EEC Directive 79/831 Annex V.A8 by HPLC (High Performance Liquid Chromatography) on a reversed-phase column (C 18), using the method described below: Temperature: 40° C.; Mobile phases: 0.1% aqueous formic acid and acetonitrile; linear gradient from 10% acetonitrile to 90% acetonitrile. Calibration was carried out using unbranched alkan-2-ones (comprising 3 to 16 carbon atoms) with known logP values (determination of the logP values by the retention times using linear interpolation between two successive alkanones). lambda-max-values were determined using UV-spectra from 200 nm to 400 nm and the peak values of the chromatographic signals.

Alternaria solani = assay: Alternaria test (tomato)/preventive; assay type: in vivo; conditions: preventive, 500 ppm, evaluated 7 days after inoculation
Experimental: The plants remain for one day in an incubation cabinet at approximately 22° C. and a relative atmospheric humidity of 100%. Then the plants are placed in an incubation cabinet at approximately 20° C. and a relative atmospheric humidity of 96%.

Sphaerotheca fuliginea = assay: Sphaerotheca test (cucumber)/preventive; assay type: in vivo; conditions: preventive, 500 ppm, evaluated 7 days after inoculation
Experimental: Then the plants are placed in a greenhouse at approximately 23° C. and a relative atmospheric humidity of approximately 70%.

Venturia inaequalis = assay: Venturia test (apples)/preventive; assay type: in vivo; conditions: preventive, 100 ppm, evaluated 10 days after inoculation
Experimental: Venturia Test (Apples)/Preventive […] After the spray coating has dried on, the plants are inoculated with an aqueous conidia suspension of the causal agent of apple scab (Venturia inaequalis) and then remain for 1 day in an incubation cabinet at approximately 20° C. and a relative atmospheric humidity of 100%.

Uromyces appendiculatus = assay: Uromyces test (beans)/preventive; assay type: in vivo; conditions: preventive, 100 ppm, evaluated 10 days after inoculation
Source text: Uromyces Test (Beans)/Preventive

Botrytis cinerea = assay: Botrytis test (beans)/preventive; assay type: in vivo; conditions: preventive, 100 ppm, lesion size 2 days after inoculation
Experimental: Botrytis Test (Beans)/Preventive
• Solvent: 24.5 parts by weight of acetone • 24.5 parts by weight of N,N-dimethylformamide • Emulsifier: 1 part by weight of alkylaryl polyglycol ether
After the spray coating has dried on, 2 small pieces of agar covered with growth of Botrytis cinerea are placed on each leaf. The inoculated plants are placed in a darkened chamber at 20° C. and a relative atmospheric humidity of 100%.
2 days after the inoculation, the size of the lesions on the leaves is evaluated.

[2] = tested on: Blumeria graminis f.sp. hordei; assay: Blumeria test (barley)/preventive; assay type: in vivo; conditions: preventive, 500 ppm, evaluated 7 days after inoculation
Experimental: After the spray coating has been dried, the plants are dusted with spores of Blumeria graminis f.sp. hordei. The plants are placed in the greenhouse at a temperature of approximately 18° C. and a relative atmospheric humidity of approximately 80% to promote the development of mildew pustules.

[3] = tested on: Fusarium nivale (var. majus); assay: Fusarium nivale (var. majus)-test (wheat)/preventive; assay type: in vivo; conditions: preventive; for Efficacy: evaluated 5 days after inoculation
Experimental: After the spray coating has been dried, the plants are slightly injured by using a sandblast and afterwards they are sprayed with a conidia suspension of Fusarium nivale (var. majus). The plants are placed in the greenhouse under a translucent incubation cabinet at a temperature of approximately 10° C. and a relative atmospheric humidity of approximately 100%.

Puccinia recondita = assay: Puccinia test (wheat)/preventive; assay type: in vivo; conditions: preventive, 500 ppm, evaluated 7-9 days after inoculation
Experimental: (§1) The plants remain for 48 hours in an incubation cabinet at 22° C. and a relative atmospheric humidity of 100%. Then the plants are placed in a greenhouse at a temperature of approximately 20° C. and a relative atmospheric humidity of approximately 80%.

Pyrenophora teres = assay: Pyrenophora test (barley)/preventive; assay type: in vivo; conditions: preventive, 500 ppm, evaluated 7-9 days after inoculation
Experimental: as §1

Pyricularia oryzae = assay type: in vivo; conditions: rice, protective, 250 ppm, evaluated 5 days after inoculation
Rhizoctonia solani = assay: Rhizoctonia test (rice)/protective; assay type: in vivo; conditions: protective, 250 ppm, evaluated 4 days after inoculation
Source text: Rhizoctonia Test (Rice)/Protective

Phakopsora pachyrhizi = assay: Phakopsora test (soybeans)/protective; assay type: in vivo; conditions: protective, 250 ppm, evaluated 11 days after inoculation
Source text: Phakopsora Test (Soybeans)/Protective

Cochliobolus miyabeanus = assay: Cochliobolus test (rice)/protective; conditions: protective, 250 ppm, evaluated 4 days after inoculation
Experimental: • Solvent: 28.5 parts by weight of acetone • Emulsifier: 1.5 part by weight of alkylaryl polyglycol ether
1 day after the treatment, the plants are inoculated with an aqueous spore suspension of Cochliobolus miyabeanus. The plants are then placed in a greenhouse at a relative atmospheric humidity of 100% and a temperature of 25° C.
Evaluation is carried out 4 days after the inoculation.

Compound `CC(C)CC(C)c1sccc1NC(=O)c1c(C(F)F)nn(C)c1Cl` (stereo not shown) [Example 3] has a logP [1] of 4.19, an Efficacy (Alternaria solani) of 100% and an Efficacy (Sphaerotheca fuliginea) of 96%. For the same compound, the Efficacy (Venturia inaequalis) was 100%, the Efficacy (Uromyces appendiculatus) was 100% and the Efficacy (Botrytis cinerea) was 98%. For the same compound, the Efficacy [2] was 100%, the Efficacy ([3]; 250 ppm) was 86% and the Efficacy ([3]; 500 ppm) was 100%. The protection ([3]; dose of 250 ppm and 500 ppm (text summary of table G2)) was “at least 80%”, the Efficacy (Puccinia recondita) was 100% and the Efficacy (Pyrenophora teres) was 100%. It also gave an Efficacy (Pyricularia oryzae) of 97%, an Efficacy (Rhizoctonia solani) of 100% and an Efficacy (Phakopsora pachyrhizi) of 98%. For the same compound, the Efficacy (Cochliobolus miyabeanus) was 97%.
